# According to patent US20260231947A1, “IMPROVED BIOCIDE COMPOSITIONS” (Solugen, Inc., priority 2021, published 2026):
# Read-outs that look alike come from different tables or passages of the source.
# Key:
# [1] = system: Wild Strain General Bacteria; assay: MIC, microtiter plate, general aerobic bacteria from produced water; type: cell-based, Pseudomonas aeruginosa and Enterobacter aggolomerans
# Description: (§1) The ability of an BF to inhibit microorganisms was investigated. Specifically, three bacteria types were tested to compare the MIC of a biocide, a biochelant and IBFs of the present disclosure. The bacteria types utilized were isolated from produced water from the Marcellus shale formation, and identified as (i) general aerobic bacteria identified as Pseudomonas aeruginosa and Enterobacter aggolomerans (ii) Wild strain sulfate reducing bacteria and (iii) acid producing bacteria. General aerobic bacteria aid in the formation of biofilms. Most of these bacteria will be found either floating freely in water (planktonic organisms) or will be attached to various surfaces (sessile organisms). Wild strain Sulfate Reducing Bacteria and Acid Producing Bacteria isolated from the produced fluid was also used. Wild strain Sulfate Reducing Bacteria (WSRB) are the most common anaerobic organisms found in the oil and gas industry. WSRB are an issue as they will reduce sulfate into sulfides which can turn into hydrogen sulfide, souring the fluid in the oil and gas well.
# (§2) The bacteria tested were placed in a microtiter plate, where a high throughput test was performed to determine MIC (minimum inhibitor concentration). […] The BE contained 1:1 biocide:biochelant each at 50 ppm.
# Wild Strain SRB = assay: MIC, microtiter plate, wild strain sulfate reducing bacteria; type: cell-based
# Description: as §1, §2
# Wild Strain APB = assay: MIC, microtiter plate, wild strain acid producing bacteria; type: cell-based
# Description: as §1, §2
# [2] = system: bacteria isolated from produced water from the Marcellus shale formation; assay: MIC, Example 1, maximum reduction over the three bacteria types; type: cell-based; conditions: biocide used in conjunction with biochelants, versus biocide alone
# Description: as §1, §2
# [3] = system: General Wild Strain Bacteria; assay: MIC, Example 2, TTPC and bleach; type: cell-based
# Text: The biocides used were tributyl tetradecyl phosphonium chloride (TTPC, BELLACIDE 350) and household bleach.
# Staphylococcus aureus = assay: MIC, Example 3, quaternary ammonium biocides
# Description: (§3) The ability of an IBF to inhibit microorganisms was investigated. The biocides used as components of the IBF were quaternary ammonium compounds. […] The bacterial strains tested were Pseudomonas aeruginosa, Staphylococcus aureus, Escherichia coli and Klebsiella pneumoniae.
# Klebsiella pneumoniae = assay: MIC, Example 3, quaternary ammonium biocides
# Description: as §3
# Pseudomonas aeruginosa = assay: MIC, Example 3, quaternary ammonium biocides
# Description: as §3
# Escherichia coli = assay: MIC, Example 3, quaternary ammonium biocides
# Description: as §3
# [4] = Wild Strain General Bacteria, IBF 1:1 biocide:biochelant, read-out: MIC
# [5] = General Wild Strain Bacteria, read-out: MIC
# [6] = Wild Strain APB, IBF 1:1 biocide:biochelant, read-out: MIC
Molecule,maximum MIC reduction [2],"MIC [1, 4]","MIC [3, 5]",MIC (Staphylococcus aureus),MIC (Klebsiella pneumoniae),MIC (Pseudomonas aeruginosa),MIC (Wild Strain APB; [6]),MIC (Escherichia coli),further results
tetrakis hydroxymethyl-phosphonium sulfate [75% THPS],97%,–,–,–,–,–,–,–,"MIC ([1]; Wild Strain General Bacteria, IBF 1:1 biocide:biochelant): 1000 ppm; MIC (Wild Strain SRB; Wild Strain SRB, IBF 1:1 biocide:biochelant): 1000 ppm; MIC (Wild Strain APB; Wild Strain APB, IBF 1:1 biocide:biochelant): 62.5 ppm"
"O=C(O)[C@@H](O)[C@@H](O)[C@H](O)[C@@H](O)C(=O)O [GA50, glucaric acid]",–,2500 µg/mL,2500 µg/mL,5000 µg/mL,1250 µg/mL,1250 µg/mL,625 µg/mL,625 µg/mL,–
"O=CCCCC=O [50% Glut, glutaraldehyde]",–,1000 µg/mL,–,–,–,–,500 µg/mL,–,–
"O=C(O)[C@H](O)[C@@H](O)[C@H](O)[C@H](O)CO [G050, gluconic acid]",–,–,–,5000 µg/mL,5000 µg/mL,5000 µg/mL,–,5000 µg/mL,MIC [1]: 10000 µg/mL; MIC [3]: 10000 µg/mL; MIC (Wild Strain SRB): 312 µg/mL; MIC (Wild Strain APB): 625 µg/mL
"O=[N+]([O-])C(Br)(CO)CO [10% BRONOPOL, 2-bromo-2-nitro-1,3-propanediol]",98%,125 µg/mL,–,–,–,–,62.5 µg/mL,–,–
"CCCCCCCCCCCCCC[P+](CCCC)(CCCC)CCCC.[Cl-] [Bellacide 350 (TTPC), tributyl tetradecyl phosphonium chloride]",–,–,500 µg/mL,–,–,–,–,–,"MIC ([3]; General Wild Strain Bacteria, with biochelant, read-out: MIC of the biocide as a component of an IBF): 15.6 µg/mL"
